Experimental data from paper PMC7375020 (Frontiers in Cell and Developmental Biology, 2020).
Marks after values point to notes of the source that are not given here.

Assays:
[1] = tested on: HeLa cell nuclear extract; test: In vitro HDAC inhibition fluorescent assay, total HDAC; type: biochemical; details: Boc-Lys(acetyl)-AMC substrate
Experimental: (§1) An aliquot of 10 μL of enzyme solution (HeLa cell nuclear extract, HDAC2, HDAC6, or HDAC8) was mixed with different concentrations of test compound (50 μL). The mixture was incubated at 37°C for 5 min, followed by the addition of 40 μL of fluorogenic substrate tert-butyl (S)-(6-acetamido- 1-((4-methyl-2-oxo-2H-chromen-7-yl)amino)-1-oxohexan-2-yl) carbamate (Boc-Lys(acetyl)-AMC) for HeLa cell nuclear extracts, HDAC2, and HDAC6; tert-butyl (S)-(1-((4-methyl- 2-oxo-2H-chromen-7-yl)amino)-1-oxo-6-(2,2,2-trifluoroacetam ido)hexan-2-yl)carbamate (Boc-Lys(trifluoroacetyl)-AMC) for HDAC8). After incubation at 37°C for 30 min, the mixture was quenched by the addition of 100 μL of developer containing trypsin and trichostatin A. Following incubation at 37°C for 20 min, the fluorescence intensity was measured using a microplate reader at excitation and emission wavelengths of 390 and 460 nm, respectively. The inhibition ratios were calculated from the fluorescence intensity readout of tested wells relative to those of control wells, and the half maximal inhibitory concentration (IC50) values were calculated using the prism non-linear curve-fitting method.

[2] = target: HDAC2 (Homo sapiens, UniProt Q92769); test: In vitro HDAC inhibition fluorescent assay, HDAC2; type: biochemical; details: Boc-Lys(acetyl)-AMC substrate
Sequence of HDAC2 (Q92769 whole entry, species assumed): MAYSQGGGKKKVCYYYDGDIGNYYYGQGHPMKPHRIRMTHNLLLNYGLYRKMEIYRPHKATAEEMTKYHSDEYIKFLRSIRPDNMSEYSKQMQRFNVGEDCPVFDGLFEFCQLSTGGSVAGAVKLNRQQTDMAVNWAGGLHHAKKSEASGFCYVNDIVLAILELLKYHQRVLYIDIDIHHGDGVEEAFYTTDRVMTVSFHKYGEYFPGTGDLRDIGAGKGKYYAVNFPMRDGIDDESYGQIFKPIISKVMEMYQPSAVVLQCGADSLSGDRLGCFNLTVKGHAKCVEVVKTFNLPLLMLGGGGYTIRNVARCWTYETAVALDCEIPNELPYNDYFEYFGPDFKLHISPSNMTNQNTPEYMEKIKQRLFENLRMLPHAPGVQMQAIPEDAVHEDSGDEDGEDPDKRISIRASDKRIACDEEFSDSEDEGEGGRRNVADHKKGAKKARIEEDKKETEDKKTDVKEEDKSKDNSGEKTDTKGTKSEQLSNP
Experimental: as §1

[3] = target: T1, HDAC6 (Homo sapiens, UniProt Q9UBN7); test: In vitro HDAC inhibition fluorescent assay, HDAC6; type: biochemical; details: Boc-Lys(acetyl)-AMC substrate
T1 sequence (Q9UBN7 1-1215): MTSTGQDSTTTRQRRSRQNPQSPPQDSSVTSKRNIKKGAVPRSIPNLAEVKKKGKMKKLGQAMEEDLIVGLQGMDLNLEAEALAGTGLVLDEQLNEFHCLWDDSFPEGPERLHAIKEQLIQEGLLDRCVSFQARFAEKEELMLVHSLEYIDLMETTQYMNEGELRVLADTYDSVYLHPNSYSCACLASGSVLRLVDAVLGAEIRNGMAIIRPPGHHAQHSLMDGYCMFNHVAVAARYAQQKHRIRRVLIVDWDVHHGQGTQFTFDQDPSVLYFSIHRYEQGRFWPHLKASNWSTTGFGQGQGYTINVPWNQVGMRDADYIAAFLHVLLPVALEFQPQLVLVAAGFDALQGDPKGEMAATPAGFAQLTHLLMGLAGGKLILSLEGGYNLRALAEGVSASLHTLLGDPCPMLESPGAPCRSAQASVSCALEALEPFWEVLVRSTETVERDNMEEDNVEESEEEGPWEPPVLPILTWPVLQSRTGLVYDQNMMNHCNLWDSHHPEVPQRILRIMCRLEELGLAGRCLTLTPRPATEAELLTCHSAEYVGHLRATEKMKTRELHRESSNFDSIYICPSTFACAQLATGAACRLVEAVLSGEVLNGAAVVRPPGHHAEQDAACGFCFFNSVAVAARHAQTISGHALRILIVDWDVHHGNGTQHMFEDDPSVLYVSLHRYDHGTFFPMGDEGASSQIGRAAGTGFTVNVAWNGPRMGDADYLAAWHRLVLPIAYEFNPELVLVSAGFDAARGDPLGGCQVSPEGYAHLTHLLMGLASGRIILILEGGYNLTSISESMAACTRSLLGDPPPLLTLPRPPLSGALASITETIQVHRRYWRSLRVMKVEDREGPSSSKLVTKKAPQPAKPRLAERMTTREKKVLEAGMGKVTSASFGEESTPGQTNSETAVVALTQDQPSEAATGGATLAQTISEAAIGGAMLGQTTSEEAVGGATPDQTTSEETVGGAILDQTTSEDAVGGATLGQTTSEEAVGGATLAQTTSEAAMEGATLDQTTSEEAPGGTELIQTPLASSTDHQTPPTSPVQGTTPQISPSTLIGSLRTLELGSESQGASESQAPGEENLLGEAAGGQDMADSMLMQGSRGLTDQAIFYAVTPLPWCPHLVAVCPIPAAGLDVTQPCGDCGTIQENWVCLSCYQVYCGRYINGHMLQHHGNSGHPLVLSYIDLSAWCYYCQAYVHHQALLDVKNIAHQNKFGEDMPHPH
Experimental: as §1

[4] = target: T2, HDAC8 (Homo sapiens, UniProt Q9BY41); test: In vitro HDAC inhibition fluorescent assay, HDAC8; type: biochemical; details: Boc-Lys(trifluoroacetyl)-AMC substrate
T2 sequence (Q9BY41 1-377): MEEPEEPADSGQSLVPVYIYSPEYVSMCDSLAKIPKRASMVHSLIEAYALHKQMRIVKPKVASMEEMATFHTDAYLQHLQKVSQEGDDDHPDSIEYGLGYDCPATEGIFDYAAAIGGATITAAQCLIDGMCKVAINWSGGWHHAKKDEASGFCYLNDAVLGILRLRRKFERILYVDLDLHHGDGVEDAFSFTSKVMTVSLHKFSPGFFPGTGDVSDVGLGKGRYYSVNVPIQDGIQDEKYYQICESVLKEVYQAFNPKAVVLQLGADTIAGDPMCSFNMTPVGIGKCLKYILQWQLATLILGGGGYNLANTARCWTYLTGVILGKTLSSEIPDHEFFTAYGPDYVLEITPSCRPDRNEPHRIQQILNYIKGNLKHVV
Experimental: as §1

[5] = tested on: MDA-MB-231; test: In vitro antiproliferative assay (MTT), MDA-MB-231; type: cell-based; details: Homo sapiens, 72 h
Experimental: (§2) The cell proliferation assay was determined by the MTT (3-[4,5-dimethyl-2-thiazolyl]-2,5-diphenyl-2H-tetrazolium bromide) method. Briefly, cells were passaged the day before dosing into a 96-well plate, allowed to grow for 12 h, and then treated with different concentrations of compound for 72 h. A 0.5% MTT solution was added to each well. After incubation for another 4 h, formazan formed from MTT was extracted by adding 200 μL of DMSO. Absorbance was then determined using a microplate reader at 570 nm.

[6] = tested on: MCF-7; test: In vitro antiproliferative assay (MTT), MCF-7; type: cell-based; details: Homo sapiens, MCF7, 72 h
Experimental: as §2

[7] = tested on: PC-3; test: In vitro antiproliferative assay (MTT), PC-3; type: cell-based; details: Homo sapiens, 72 h
Experimental: as §2

[8] = tested on: SK-N-BE(2); test: In vitro antiproliferative assay (MTT), SK-N-BE(2); type: cell-based; details: Homo sapiens, SKNBE2, 72 h
Experimental: as §2

[9] = tested on: KG-1; test: In vitro antiproliferative assay (MTT), KG-1; type: cell-based; details: Homo sapiens, 72 h
Experimental: as §2

[10] = tested on: MOLT-4; test: In vitro antiproliferative assay (MTT), MOLT-4; type: cell-based; details: Homo sapiens, 72 h
Experimental: as §2

[11] = tested on: HEL; test: In vitro antiproliferative assay (MTT), HEL; type: cell-based; details: Homo sapiens, 72 h
Experimental: as §2

[12] = tested on: tested human cancer cell lines; test: In vitro antiproliferative assay (MTT), all tested tumor cell lines; type: cell-based
Experimental: as §2, with “All cell lines were maintained in Roswell Park Memorial Institute (RPMI) 1640 medium containing 10% fetal bovine serum at 37°C in a 5% CO2 humidified incubator. The” for “The”

[13] = In vitro metabolic stability assay in human plasma; type: in vitro ADME; details: 37°C, LC-MS/MS, read-out: t1/2 Human plasma
Experimental: (§3) Human plasma samples containing compound 1 were incubated at 37°C. At the specific time points, samples were added to acetonitrile to terminate the reaction, then subjected to vortex mixing for 5 min and stored in a freezer at –80°C. Before analysis, the samples were centrifuged. The remainder of 1 in the supernatants was analyzed by liquid chromatography with tandem mass spectrometry (LC-MS/MS). The t1/2(half–time) values were calculated using the equation t1/2(half–time) = −0.693/k, where k is the slope found in the linear fit of the natural logarithm of the fraction remaining of compound 1 versus incubation time.

[14] = In vitro metabolic stability assay in human liver microsomes; type: in vitro ADME; details: with NADPH, 37°C, LC-MS/MS, read-out: t1/2 Human liver microsomes
Experimental: as §3, with “Human liver microsomes” for “Human plasma samples”, “incubated with NADPH” for “incubated”, “by LC-MS/MS.” for “by liquid chromatography with tandem mass spectrometry (LC-MS/MS).”, “equation t1/2” for “equation t1/2(half–time)”

[15] = tested on: MDA-MB-231 xenograft; type: in vivo; details: oral 30 mg/kg/day
Experimental: Ten days after injection, tumors were palpable and mice were randomized into treatment and control groups (six mice per group). […] Subcutaneous tumors were measured with a vernier caliper every 3 days. Tumor volumes (V) were estimated using the equation (V = ab^2/2, where a and b are the longest and shortest diameter, respectively). The body weight of the mice was also monitored regularly. At the end of the experimental period, mice were sacrificed and the tumor tissues were dissected and weighed. Tumor growth inhibition (TGI) and the relative increment ratio (T/C) were calculated at the end of treatment to reveal the antitumor effects in tumor weight and tumor volume, respectively.
• TGI = (the mean tumor weight of control group – the mean tumor weight of treated group)/the mean tumor weight of control group. • T/C = the mean RTV of treated group (T)/the mean RTV of blank control group (C).
where the relative tumor volume (RTV) is Vt/V0 (Vt is the tumor volume measured at the end of treatment; V0 is the tumor volume measured at the beginning of the treatment).
All the obtained data were used to evaluate the antitumor potency and toxicity of compounds. Data were analyzed by Student’s one-tailed t-test.

[16] = tested on: acetyl-histone H4 and acetyl-α-tubulin in MDA-MB-231 cells; test: Western blot analysis of intracellular HDAC inhibition; type: cell-based, human; details: for level of acetyl-histone H4 / level of acetyl-α-tubulin: 3 h, immunoblot
Experimental: The MDA-MB-231 cells were treated with compounds or DMSO for a specified period of time. Then the cells were washed twice with cold phosphate-buffered saline (PBS) and lysed in ice-cold radioimmunoprecipitation assay (RIPA) buffer. Lysates were cleared by centrifugation. Protein concentrations were determined using the bicinchoninic acid assay. Equal amounts of cell extracts were then resolved by sodium dodecyl sulfate–polyacrylamide gel electrophoresis, transferred to nitrocellulose membranes, and probed with acetyl-histone H4 antibody (intracellular substrate of HDAC1 and HDAC2), acetyl-α-tubulin antibody (intracellular substrate of HDAC6), and β-actin antibody (used as a loading control), respectively. Blots were detected using an enhanced chemiluminescence system.

[17] = parameters: method as in Konsoula and Jung, 2008; details: reported data of vorinostat; ref Konsoula and Jung, 2008; cited from earlier work

O=C(CCCCCCC(=O)Nc1nc2ccc(OC(F)(F)F)cc2s1)NO [Compound 1, N1-Hydroxy-N8-(6-(Trifluoromethoxy)benzo[d]thiazol-2-yl) Octanediamide]
IC50 [1]: 120 ± 10 nM | IC50 [2]: 330 ± 40 nM | IC50 [3]: 12 ± 2 nM | IC50 [4]: 3300 ± 200 nM | IC50 [5]: 770 ± 20 nM | IC50 [6]: 2740 ± 60 nM | IC50 [7]: 2520 ± 330 nM | IC50 [8]: 290 ± 7 nM | IC50 [9]: 650 ± 20 nM | IC50 [10]: 170 ± 7 nM | IC50 [11]: 140 ± 7 nM | IC50 ([12]; range over MDA-MB-231, MCF-7, PC-3, SK-N-BE(2), KG-1, MOLT-4, HEL, read-out: IC50 values across all tested human cancer cell lines): 140 to 2740 nM | half-life [13]: > 120 min | half-life [14]: 56 min | T/C (relative increment ratio, tumor volume) ([15]; 21 consecutive days, nude mice): 55% | TGI (tumor growth inhibition, tumor weight) ([15]; 21 consecutive days, nude mice): 59% | mouse body weights (tolerability) ([15]; 21 days, Figure 6): high tolerability and low toxicity | level of acetyl-histone H4 [16]: dramatically increase | level of acetyl-α-tubulin [16]: dramatically increase | effect on acetyl-α-tubulin compared with vorinostat ([16]; same concentration of 0.5 μM): superior to that of vorinostat

O=C(CCCCCCC(=O)Nc1ccccc1)NO [Vorinostat, suberoylanilide hydroxamic acid, reference compound]
level of acetyl-histone H4 [16]: dramatically increase | level of acetyl-α-tubulin [16]: dramatically increase | t1/2 Human plasma [17]: 75^b min

Nc1nc2ccc(OC(F)(F)F)cc2s1 [Riluzole, reference compound]
IC50 [5]: > 10000 nM | IC50 [7]: > 10000 nM | IC50 [9]: > 10000 nM | IC50 [11]: > 10000 nM | inhibition at 10 µM ([12]; at 10 μM, tested tumor cell lines, read-out: growth inhibition): < 50%
